The numbers were not newly measured in US7943127B2 (priority 2004, dated 2011), which cites them from elsewhere.

Each structure is given as a SMILES string.

The conditions of the data set: in vivo, iv.

For `COc1cc(CNC(=O)CCCC/C=C/C(C)C)ccc1O` [Capsaicin, (E)-N-((4-Hydroxy-3-methoxyphenyl)-methyl)-8-methyl-6-nonenamide], the lethal toxic dose result was “about 0.56 mg/kg”.
